Measurements taken from article PMC3199943, “Screening the MayBridge Rule of 3 Fragment Library for Compounds That Interact with the Trypanosoma brucei myo-Inositol-3-Phosphate Synthase and/or Show Trypanocidal Activity” (Molecular Biology International, 2011).
Read-outs that look alike come from different tables or passages of the source.

Columns and labels:
HeLa cells = assay: cells; settings: for viability at 500 µM / CC50: Homo sapiens, HeLa; for viability at 500 µM: 65 h; for HeLa Cells Alamar Blue: Supplementary Table 1; for CC50: read-out: HeLa ED50
Method in brief: (§1)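 HeLa and A549 cells grown in DMEM with 10% FCS and 2 mM L-Glutamine were seeded at 2 × 10^4 cells/well. They were exposed to compounds for ~65 hours, then Alamar Blue was added for a further 5 hours to measure viability.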

TbINO1 = biological target: T1, TbINO1 (Trypanosoma brucei brucei, UniProt Q5QQ46); assay: biochemical; assay type: binding
T1 sequence (Q5QQ46 1-528): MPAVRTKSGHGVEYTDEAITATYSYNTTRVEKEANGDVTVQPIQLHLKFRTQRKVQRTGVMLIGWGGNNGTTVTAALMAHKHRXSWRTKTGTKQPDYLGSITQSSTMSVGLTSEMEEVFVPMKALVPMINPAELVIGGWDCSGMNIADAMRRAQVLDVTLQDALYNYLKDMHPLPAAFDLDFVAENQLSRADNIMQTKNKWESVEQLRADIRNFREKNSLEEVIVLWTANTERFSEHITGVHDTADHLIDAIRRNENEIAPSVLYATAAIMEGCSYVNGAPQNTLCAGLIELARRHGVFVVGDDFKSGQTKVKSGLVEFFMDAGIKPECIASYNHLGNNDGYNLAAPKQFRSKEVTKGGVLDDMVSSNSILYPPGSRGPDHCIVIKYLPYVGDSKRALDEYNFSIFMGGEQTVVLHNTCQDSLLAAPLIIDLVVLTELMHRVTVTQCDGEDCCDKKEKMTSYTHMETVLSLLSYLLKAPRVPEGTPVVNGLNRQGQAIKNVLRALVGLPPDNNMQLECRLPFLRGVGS

A549 cells = assay: Cytotoxicity against A549 cells, Alamar Blue; assay type: cell-based; settings: Supplementary Table 1, compound 0.5 mM, percentage of controls (n=1); for viability at 500 µM: Homo sapiens, A549, 65 h
Method in brief: as §1

[1] = read-out: HeLa Cells Alamar Blue
[2] = read-out: Tb Ino1 Tm Shift [˚C]
[3] = read-out: HeLa Cells Alamar Blue (% survival)
[4] = compound 0.5 mM, percentage of controls, mean ± SD (n=3) or SE (n=2)
[5] = Supplementary Table 1, compound 1mM, mean ± SD from Boltzman curve fitting
[6] = Supplementary Table 1, compound 1mM, mean ± SD from Boltzman curve fitting, read-out: Tb Ino1 Tm Shift [˚C]

SMILES | viability at 500 µM (HeLa cells; [1]) | ΔTm at 1000 µM (TbINO1; [2]) | viability at 500 µM (A549 cells) | also measured
CCOC(=O)C1CSCCN1 (stereo not shown) [compound 402, ethyl thiomorpholine‐3‐carboxylate] | 107 ± 18.3% | 0.45 ± 0.08 °C | 95.2% | –
CC(=O)c1nccnc1C [compound 117, 1‐(3‐methylpyrazin‐2‐yl)ethan‐1‐one] | 87.6 ± 11.3% | 0.4 ± 0.06 °C | 88.3% | –
Oc1ccc2c(c1)OCO2 [compound 124, 1,3-benzodioxol-5-ol] | 39.7 ± 12.5% | – | 53.6% | viability at 500 µM (HeLa cells; [3]): 39.7 ± 12.5%; ΔTm at 1000 µM (TbINO1; compound 1 mM, mean ± SD (n = 3), read-out: TbIno1 Tm shift [°C]): 2.1 ± 0.04 °C
N#Cc1c(N)cccc1F [compound 115, 2‐amino‐6‐fluorobenzonitrile] | 71.3 ± 0.6% | 0.17 ± 0.07 °C | 77.4% | –
CC(=O)Nc1cc(C)ccc1O [compound 303, N1‐(2‐hydroxy‐5‐methylphenyl)acetamide] | – | – | – | HeLa Cells Alamar Blue (HeLa cells; [4]): 95.3 ± 9.8 percentage of controls; Tb Ino1 Tm Shift [˚C] (TbINO1; [5]): 0.15 ± 0.07 °C; A549 Cells Alamar Blue (A549 cells): 45 percentage of controls
Clc1ccc(Cl)s1 [compound 211, 2,5‐dichlorothiophene] | 99.6 ± 4.1% | 0.02 ± 0.08 °C | 117% | –
CC(=O)c1sc(C)nc1C [compound 226, 1‐(2,4‐dimethyl‐1,3‐thiazol‐5‐yl)ethan‐1‐one] | – | – | – | HeLa Cells Alamar Blue (HeLa cells; [4]): 85.8 ± 10.4 percentage of controls; Tb Ino1 Tm Shift [˚C] (TbINO1; [5]): 0.37 ± 0.1 °C; A549 Cells Alamar Blue (A549 cells): 62 percentage of controls
OCc1nccs1 [compound 38, 1,3‐thiazol‐2‐ylmethanol] | 99.4 ± 4.1% | 0.18 ± 0.09 °C | 95% | –
CCc1cccc(C(C)=O)c1 [compound 174, 1‐(3‐ethylphenyl)ethan‐1‐one] | 100 ± 7.3% | 0.8 ± 0.05 °C | 79.2% | –
Cc1ncsc1C(=O)O [compound 145, 4‐Methyl‐thiazole‐5‐carboxylic acid] | 90.6 ± 16.1% | 0.01 ± 0.07 °C | 114% | –
CN1C2CCC1CC(=NO)C2.Cl [compound 552, 8‐methyl‐8‐azabicyclo[3.2.1]octan‐3‐one oxime hydrochloride] | – | – | – | HeLa Cells Alamar Blue (HeLa cells; [4]): 103.5 ± 9.7 percentage of controls; Tb Ino1 Tm Shift [˚C] (TbINO1; [5]): 0 ± 0.09 °C; A549 Cells Alamar Blue (A549 cells): 105.3 percentage of controls
c1ccc(Sc2ccsc2)cc1 [compound 574, 3‐(phenylthio)thiophene] | 98.8 ± 18.5% | 0.11 ± 0.07 °C | 93.9% | –
CN1CCN(c2ccccc2N)CC1 [compound 561, 2‐(4‐methylpiperazin‐1‐yl)aniline] | 74.3 ± 11.7% | – | 101% | ΔTm at 1000 µM (TbINO1; [6]): 0.46 ± 0.07 °C
COc1ncccc1N [compound 65, 2‐methoxypyridin‐3‐amine] | 66.6 ± 18.7% | 1.46 ± 0.07 °C | 75.4% | –
COC(=O)C1NCCS1 (stereo not shown) [compound 44] | 85.7 ± 19.3% | 0.11 ± 0.06 °C | 75.7% | viability at 500 µM (HeLa cells; [3]): 108 ± 15.9%; ΔTm at 1000 µM (TbINO1; read-out: TbIno1 Tm shift [°C]): 2.81 ± 0.1 °C
CNCc1ccccc1-c1cccs1 [compound 646, N‐methyl‐N‐(2‐thien‐2‐ylbenzyl)amine] | – | – | 66.9% | viability at 500 µM (HeLa cells; read-out: HeLa Cells Alamar Blue, Supplementary Table 1, compound 0.5 mM, percentage of controls, mean ± SD (n=3) or SE (n=2)): 36.5 ± 9.5%; ΔTm at 1000 µM (TbINO1; [6]): 0.1 ± 0.05 °C
COC(=O)c1cccc(C)c1 [compound 185, methyl 3‐methylbenzoate] | 106 ± 10.4% | 0.14 ± 0.09 °C | 61.3% | –
Nc1cc(-c2cccs2)[nH]n1 [compound 313, 5‐thien‐2‐yl‐1H‐pyrazol‐3‐amine] | 101 ± 18.9% | 0.69 ± 0.08 °C | 81.7% | –

SMILES | viability at 500 µM (HeLa cells; [1]) | ΔTm at 1000 µM (TbINO1; [2]) | viability at 500 µM (A549 cells) | also measured
CC(=O)c1ccc(C#N)s1 [compound 198, 5‐acetylthiophene‐2‐carbonitrile] | 93.3 ± 15.3% | 0.24 ± 0.07 °C | 61.2% | –
CNCc1ccncc1 [compound 56, N‐methyl‐N‐(4‐pyridinylmethyl)amine] | 87.9 ± 9.9% | 0.01 ± 0.08 °C | 78.5% | –
OCc1ccc(-c2ccco2)cc1 [compound 383, [4-(2-furyl)phenyl]methanol] | 20 ± 10.6% | – | 89.6% | viability at 500 µM (HeLa cells; [3]): 20 ± 10.6%; CC50 (HeLa cells): 292 ± 31 µM; ΔTm at 1000 µM (TbINO1; read-out: TbIno1 Tm shift [°C]): 3.45 ± 0.09 °C
OCc1cccc(N2CCOCC2)c1 [compound 579, (3‐morpholinophenyl)methanol] | 100 ± 13.5% | 0.18 ± 0.08 °C | 101% | –
CN1N=C(C(F)(F)F)CC1=O [compound 315, 1‐methyl‐3‐(trifluoromethyl)‐4,5‐dihydro‐1H‐pyrazol‐5‐one] | – | – | – | HeLa Cells Alamar Blue (HeLa cells; [4]): 109.2 ± 4.4 percentage of controls; Tb Ino1 Tm Shift [˚C] (TbINO1; [5]): 0.09 ± 0.08 °C; A549 Cells Alamar Blue (A549 cells): 88.3 percentage of controls
Cn1c(CO)cc2sccc21 [compound 331, (4-methyl-4H-thieno[3,2-b]pyrrol-5-yl)methanol] | 93.6 ± 14.9% | – | 121% | viability at 500 µM (HeLa cells; [3]): 93.6 ± 14.9%; CC50 (HeLa cells): 169 ± 10 µM; ΔTm at 1000 µM (TbINO1; read-out: TbIno1 Tm shift [°C]): 1.54 ± 0.07 °C
CC(=O)c1ccc(C#N)cc1 [compound 155, 4‐acetylbenzonitrile] | 87.3 ± 16.6% | – | 131% | ΔTm at 1000 µM (TbINO1; [6]): 0.19 ± 0.06 °C
N#Cc1ccccc1-n1cccn1 [compound 340, 2‐(1H‐pyrazol‐1‐yl)benzonitrile] | 104 ± 16.5% | 0.18 ± 0.06 °C | 134% | –
CC(C)(C)OC(=O)Nc1cccs1 [compound 620, tert-butyl N-(2-thienyl)carbamate] | 71.3 ± 13.6% | – | 109% | viability at 500 µM (HeLa cells; [3]): 71.3 ± 13.6%; ΔTm at 1000 µM (TbINO1; read-out: TbIno1 Tm shift [°C]): 2.08 ± 0.1 °C
O=C(Nc1ccncc1)c1ccccc1 [compound 603, N1‐(4‐pyridyl)benzamide] | 79 ± 15.1% | 0.32 ± 0.07 °C | 57.3% | –
OCc1ccc2ccccc2n1 [compound 256, 2-quinolinylmethanol] | 99.2 ± 19.5% | – | 119% | viability at 500 µM (HeLa cells; [3]): 99.2 ± 19.5%; CC50 (HeLa cells): 836 ± 68 µM; ΔTm at 1000 µM (TbINO1; read-out: TbIno1 Tm shift [°C]): 2.2 ± 0.06 °C
COC(=O)c1cscc1N [compound 244, methyl 4‐aminothiophene‐3‐carboxylate] | 78.7 ± 17.9% | 0.61 ± 0.11 °C | 90.3% | –
C#Cc1ccc(OC)cc1 [compound 96, 1‐eth‐1‐ynyl‐4‐methoxybenzene] | 94 ± 4.9% | 0.48 ± 0.06 °C | 111% | –
Cc1nc(-c2ccc(N)cc2)cs1 [compound 547, 4‐(2‐methyl‐1,3‐thiazol‐4‐yl)phenylamine] | 74.3 ± 11% | 0.12 ± 0.07 °C | 63.2% | –
CSc1ccc(C(=O)O)s1 [compound 389, 5‐(methylthio)thiophene‐2‐carboxylic acid] | – | – | – | HeLa Cells Alamar Blue (HeLa cells; [4]): 104.2 ± 16.4 percentage of controls; Tb Ino1 Tm Shift [˚C] (TbINO1; [5]): 0.43 ± 0.05 °C; A549 Cells Alamar Blue (A549 cells): 125.1 percentage of controls
NCc1ccccc1Cl [compound 136, 2‐chlorobenzylamine] | 53.3 ± 12.2% | 0.02 ± 0.07 °C | 90.4% | –
CCCc1ccc(C(C)=O)cc1 [compound 288, 1‐(4‐propylphenyl)ethan‐1‐one] | 72.2 ± 17.1% | 0.22 ± 0.08 °C | 90.6% | –
